Reference: PubChem BioAssay (NCI)
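The compound was tested at five concentrations on cells cultured in 96-well plates, with a 48-hour exposure period. TGI marks complete inhibition of growth.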

Experiments:
Experiment in all cases: NCI anticancer screen, dose series, 48 h
[1] = tested on: 786-0 renal
[2] = tested on: A498 renal
[3] = tested on: A549 NSCLC
[4] = tested on: ACHN renal
[5] = tested on: BT-549 breast
[6] = tested on: CAKI-1 renal
[7] = tested on: CCRF-CEM leukemia
[8] = tested on: COLO 205 colon
[9] = tested on: DU-145 prostate
[10] = tested on: EKVX NSCLC
[11] = tested on: HCC-2998 colon
[12] = tested on: HCT-116 colon
[13] = tested on: HCT-15 colon
[14] = tested on: HL-60(TB) leukemia
[15] = tested on: HOP-62 NSCLC
[16] = tested on: HOP-92 NSCLC
[17] = tested on: HS 578T breast
[18] = tested on: HT29 colon
[19] = tested on: IGROV1 ovarian
[20] = tested on: K-562 leukemia
[21] = tested on: KM12 colon
[22] = tested on: LOX IMVI melanoma
[23] = tested on: M14 melanoma
[24] = tested on: MALME-3M melanoma
[25] = tested on: MCF7 breast
[26] = tested on: MDA-MB-231 breast
[27] = tested on: MDA-MB-435
[28] = tested on: MDA-N
[29] = tested on: MOLT-4 leukemia
[30] = tested on: NCI-H226 lung
[31] = tested on: NCI-H23 lung
[32] = tested on: NCI-H460 lung
[33] = tested on: NCI-H522 lung
[34] = tested on: NCI/ADR-RES ovarian
[35] = tested on: OVCAR-3 ovarian
[36] = tested on: OVCAR-4 ovarian
[37] = tested on: OVCAR-5 ovarian
[38] = tested on: OVCAR-8 ovarian
[39] = tested on: PC-3 prostate
[40] = tested on: RPMI-8226 leukemia
[41] = tested on: RXF 393 renal
[42] = tested on: SF-268 CNS
[43] = tested on: SF-295 CNS
[44] = tested on: SF-539 CNS
[45] = tested on: SK-MEL-2 melanoma
[46] = tested on: SK-MEL-28 melanoma
[47] = tested on: SK-MEL-5 melanoma
[48] = tested on: SK-OV-3 ovarian
[49] = tested on: SN12C renal
[50] = tested on: SNB-19 CNS
[51] = tested on: SNB-75 CNS
[52] = tested on: SR leukemia
[53] = tested on: SW-620 colon
[54] = tested on: T-47D breast
[55] = tested on: TK-10 renal
[56] = tested on: UACC-257 melanoma
[57] = tested on: UACC-62 melanoma
[58] = tested on: UO-31 renal

O=C1NC(N/N=C\C(O)C(O)C(O)C(O)CO)=N/C1=C\c1ccc(Cl)cc1 (stereo not drawn)
TGI [1]: 18.1 µM
TGI [2]: 39.9 µM
TGI [3]: > 73.3 µM
TGI [4]: > 59.1 µM
TGI [5]: 31.4 µM
TGI [6]: > 100 µM
TGI [7]: > 73.1 µM
TGI [8]: 23.7 µM
TGI [9]: 91.5 µM
TGI [10]: 38.9 µM
TGI [11]: 36.3 µM
TGI [12]: > 40.4 µM
TGI [13]: > 100 µM
TGI [14]: > 72.1 µM
TGI [15]: 7.5 µM
TGI [16]: 7.44 µM
TGI [17]: 6.68 µM
TGI [18]: 36.3 µM
TGI [19]: 31.9 µM
TGI [20]: > 100 µM
TGI [21]: > 80.7 µM
TGI [22]: 12.8 µM
TGI [23]: 18.1 µM
TGI [24]: 5.95 µM
TGI [25]: > 100 µM
TGI [26]: 15.2 µM
TGI [27]: 34.7 µM
TGI [28]: 9.99 µM
TGI [29]: 24.6 µM
TGI [30]: 10.6 µM
TGI [31]: 21.2 µM
TGI [32]: 32.3 µM
TGI [33]: 7.46 µM
TGI [34]: > 100 µM
TGI [35]: 6.88 µM
TGI [36]: 26 µM
TGI [37]: > 66.6 µM
TGI [38]: 5.63 µM
TGI [39]: 18.5 µM
TGI [40]: > 100 µM
TGI [41]: 25.6 µM
TGI [42]: 10.5 µM
TGI [43]: 31.5 µM
TGI [44]: 1.01 µM
TGI [45]: 23.1 µM
TGI [46]: > 100 µM
TGI [47]: 31.4 µM
TGI [48]: 40.6 µM
TGI [49]: 15.3 µM
TGI [50]: 10.9 µM
TGI [51]: 6.04 µM
TGI [52]: 19.3 µM
TGI [53]: > 100 µM
TGI [54]: 14.1 µM
TGI [55]: 27.4 µM
TGI [56]: 37.4 µM
TGI [57]: 3.14 µM
TGI [58]: > 79.9 µM
